# Test results taken from patent US6426355B1, “Heterocyclic carboxamide-containing thiourea inhibitors of herpes viruses containing phenylenediamine group” (American Home Products, priority 1998, dated 2002).
# Tests used:
# [1] = test system: HCMV recombinant mutant virus (RV145); assay: HCMV microtiter plate assay (beta-glucuronidase reporter); assay type: cell-based, Human Cytomegalovirus; conditions: HCMV in human foreskin fibroblasts
# Outline: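 Replication was read out as virus-encoded β-glucuronidase activity, measured with a chromogenic or fluorogenic glucuronide substrate in cell lysates at 96 h post-infection. Infection of human foreskin fibroblasts with RV145 took place with compound present. IC50 was derived from a range of inhibitor amounts.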
# [2] = test system: HSV-1; assay: HSV Antiviral (ELISA) assay; assay type: cell-based; conditions: HSV-1 in Vero cells
# Outline: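 Replication measured as glycoprotein D signal in fixed cells: anti-gD antibody plus β-galactosidase-linked secondary, fluorogenic substrate read at 365/450 nm. Vero cells (2% FBS DMEM) received compound 30 min pre-infection, HSV-1 MOI 0.006, ~24 h incubation; IC50 relative to no-compound fluorescence.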
# [3] = test system: VZV strain Ellen; assay: VZV Antiviral (ELISA) assay; assay type: cell-based; conditions: VZV strain Ellen in HFF cells; for % inhibition 10 ug/ml VZV: at 10 ug/ml
# Outline: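 First, fibroblasts are infected at multiplicity below 0.1 and kept overnight. The harvested cell mixture then goes onto compound-containing wells for three days at 37° C. Finally, cells are fixed and viral gpII is measured by fluorogenic ELISA.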
SMILES,IC50 (ug/ml) HCMV [1],IC50 (ug/ml) HSV [2],IC50 (ug/ml) VZV [3],% inhibition 10 ug/ml VZV [3]
O=C(Nc1ccc(NC(=S)Nc2ccc3[nH]nnc3c2)cc1)c1ccco1 [Example 526],3 µg/mL,>10 µg/mL,2.5 µg/mL,22%
O=C(Nc1ccc(NC(=S)NNc2cccc(Cl)c2)cc1)c1ccco1 [Example 528],0.25 µg/mL,3.2 µg/mL,5 µg/mL,107%
Nc1c(Cl)cc(C(F)(F)F)cc1NC(=S)Nc1ccc(NC(=O)c2ccco2)cc1 [Example 530],0.15 µg/mL,5 µg/mL,6 µg/mL,96%
O=C(Nc1ccc(NC(=S)Nc2cc(Br)cc(C(F)(F)F)c2)cc1)c1csnn1 [Example 532],0.009 µg/mL,>10 µg/mL,6 µg/mL,–
Nc1c(Cl)cc(C(F)(F)F)cc1NC(=S)Nc1ccc(NC(=O)c2csnn2)cc1 [Example 534],0.05 µg/mL,7 µg/mL,>10 µg/mL,–
O=C(Nc1ccc(NC(=S)Nc2cc(N3CCCCC3)cc(C(F)(F)F)c2)cc1)c1csnn1 [Example 535],0.016 µg/mL,>10 µg/mL,>10 µg/mL,–
O=C(Nc1ccc(NC(=S)NCc2ccc(Cl)c(Cl)c2)cc1)c1csnn1 [Example 537],0.003 µg/mL,9 µg/mL,10 µg/mL,–
O=C(Nc1ccc(NC(=S)NCc2ccccc2)cc1)c1csnn1 [Example 539],0.036 µg/mL,>10 µg/mL,>10 µg/mL,–
O=C(Nc1ccc(NC(=S)NCc2ccc3c(c2)OCO3)cc1)c1csnn1 [Example 541],0.017 µg/mL,7 µg/mL,>10 µg/mL,–
O=C(Nc1ccc(NC(=S)NCc2cc(C(F)(F)F)cc(C(F)(F)F)c2)cc1)c1csnn1 [Example 542],0.0011 µg/mL,>10 µg/mL,>10 µg/mL,–
O=C(Nc1ccc(NC(=S)NCc2ccccc2)cc1)c1ccco1 [Example 544],0.02 µg/mL,>10 µg/mL,>10 µg/mL,–
O=C(Nc1ccc(NC(=S)NCc2ccc(Cl)c(Cl)c2)cc1)c1ccco1 [Example 545],0.012 µg/mL,3 µg/mL,7 µg/mL,–
O=C(Nc1ccc(NC(=S)NCc2cc(C(F)(F)F)cc(C(F)(F)F)c2)cc1)c1ccco1 [Example 547],0.006 µg/mL,>10 µg/mL,10 µg/mL,–
O=C(Nc1ccc(NC(=S)Nc2ccc(Br)c(C(F)(F)F)c2)cc1)c1csnn1 [Example 548],0.008 µg/mL,>10 µg/mL,>lo,–
O=C(Nc1ccc(NC(=S)Nc2ccc(OC(F)(F)F)c(Br)c2)cc1)c1csnn1 [Example 550],0.013 µg/mL,>10 µg/mL,>10 µg/mL,–
O=C(Nc1ccc(NC(=S)Nc2ccc(SC(F)(F)F)c(Cl)c2)cc1)c1ccco1 [Example 551],0.043 µg/mL,>10 µg/mL,>10 µg/mL,–
O=C(Nc1ccc(NC(=S)NCCc2cccc(F)c2)cc1)c1csnn1 [Example 554],0.01 µg/mL,>10 µg/mL,1.5 µg/mL,–
O=C(Nc1ccc(NC(=S)NCCc2ccc(F)cc2)cc1)c1csnn1 [Example 555],0.008 µg/mL,>10 µg/mL,4 µg/mL,–

SMILES,IC50 (ug/ml) HCMV [1],IC50 (ug/ml) HSV [2],IC50 (ug/ml) VZV [3],% inhibition 10 ug/ml VZV [3]
CCC(C)Cc1cc(NC(=S)Nc2ccc(NC(=O)c3csnn3)cc2)cc(C(F)(F)F)c1 (stereo not drawn) [Example 556],0.006 µg/mL,>10 µg/mL,>7.5 µg/mL,–
CC(C)Cc1cc(NC(=S)Nc2ccc(NC(=O)c3csnn3)cc2)cc(C(F)(F)F)c1 [Example 557],0.006 µg/mL,>10 µg/mL,>10 µg/mL,–
CN1CCN(c2cc(NC(=S)Nc3ccc(NC(=O)c4csnn4)cc3)cc(C(F)(F)F)c2)CC1 [Example 558],0.05 µg/mL,7 µg/mL,>10 µg/mL,–
O=C(Nc1ccc(NC(=S)Nc2cc(N3CCOCC3)cc(C(F)(F)F)c2)cc1)c1csnn1 [Example 559],0.012 µg/mL,>10 µg/mL,>10 µg/mL,–
O=C(Nc1ccc(NC(=S)Nc2cc(N3CCCC3)cc(C(F)(F)F)c2)cc1)c1csnn1 [Example 560],0.008 µg/mL,>10 µg/mL,>10 µg/mL,–
O=C(Nc1ccc(NC(=S)NCCc2ccc(F)cc2)cc1)c1ccco1 [Example 561],0.05 µg/mL,>10 µg/mL,8 µg/mL,–
O=C(Nc1ccc(NC(=S)NCCc2cccc(Cl)c2)cc1)c1csnn1 [Example 562],0.004 µg/mL,>10 µg/mL,8 µg/mL,–
O=C(Nc1ccc(NC(=S)NCCc2cccc(Cl)c2)cc1)c1ccco1 [Example 564],0.027 µg/mL,>10 µg/mL,5 µg/mL,–
CC(NC(=S)Nc1ccc(NC(=O)c2csnn2)cc1)c1ccc(F)cc1 (stereo not drawn) [Example 565],0.01 µg/mL,>10 µg/mL,0.22 µg/mL,–
CC(NC(=S)Nc1ccc(NC(=O)c2csnn2)cc1)c1ccccc1 (stereo not drawn) [Example 588],0.03 µg/mL,>10 µg/mL,0.36 µg/mL,–
CC(NC(=S)Nc1ccc(NC(=O)c2ccco2)cc1)c1ccccc1 (stereo not drawn) [Example 590],0.12 µg/mL,>10 µg/mL,1 µg/mL,–
CC(NC(=S)Nc1ccc(NC(=O)c2ccco2)cc1)c1ccc(F)cc1 (stereo not drawn) [Example 592],0.049 µg/mL,>10 µg/mL,2 µg/mL,–
CC(C)CN(C)c1cc(NC(=S)Nc2ccc(NC(=O)c3csnn3)cc2)cc(C(F)(F)F)c1 [Example 594],0.011 µg/mL,>10 µg/mL,>10 µg/mL,–
O=C(Nc1ccc(NC(=S)Nc2cc(N3CCC(O)C3)cc(C(F)(F)F)c2)cc1)c1csnn1 (stereo not drawn) [Example 595],0.022 µg/mL,>10 µg/mL,3 µg/mL,–
CCCCN(C)c1cc(NC(=S)Nc2ccc(NC(=O)c3csnn3)cc2)cc(C(F)(F)F)c1 [Example 597],0.008 µg/mL,>10 µg/mL,>10 µg/mL,–
O=C(Nc1ccc(NC(=S)NCCc2cc(C(F)(F)F)cc(C(F)(F)F)c2)cc1)c1csnn1 [Example 599],0.005 µg/mL,>10 µg/mL,>10 µg/mL,–
O=C(Nc1ccc(NC(=S)Nc2ccc(F)c(C(F)(F)F)c2)cc1)c1csnn1 [Example 600],0.012 µg/mL,>10 µg/mL,>10 µg/mL,–
